In US20070037882A1, “Remedy for cerebral neurodegenerative diseases using ppar agonist” (Astellas Pharma Inc., priority 2003, published 2007):
“Also recorded” adds a separate entry of the source.

Key:
SH-SY5Y cells [1] = experiment: Thapsigargin-induced cellular death model, apoptosis by caspase-3/7 assay; assay type: cell-based, human; settings: for Caspase 3/7 activity: thapsigargin + (100 nM), 3 h
[2] = test system: rat cerebral infarction model; experiment: Rat cerebral infarction model (middle cerebral artery-occluded reperfusion, Koizumi method); assay type: in vivo; settings: for Lesions with cerebral infarction (area in % of damaged site in the 6 sections), Cortex / Lesions with cerebral infarction (area in % of damaged site in the 6 sections), Subcortex / Lesions with cerebral infarction (area in % of damaged site in the 6 sections), Total: 24 h after reperfusion
[3] = test system: murine MPTP Parkinson's model; experiment: Murine MPTP Parkinson's model, striate body DA and metabolites; assay type: in vivo, mice; settings: for DA content per wet weight of striate body / DOPAC content per wet weight of striate body / HVA content per wet weight of striate body: MPTP +, 4 days after MPTP
SH-SY5Y cells [4] = experiment: Staurosporine-induced cellular death model, apoptosis by caspase-3/7 assay; assay type: cell-based, human; settings: for Caspase 3/7 activity: staurosporine + (150 nM), 3 h
Method: (§1) SH-SY5Y cells were spread on a 96-well plate (70,000 cell/well in 100 μl DMEM low glucose 10% fetal bovine serum) for overnight culturing, from which the culture medium was removed with an aspirator. Then, DMEM without serum was added at 50 μl/well. […] 2 hours later, DMEM without serum containing 900 nM staurosporine was added at 20 μl/well. (Staurosporine to a final 150 nM concentration) (For a control, DMEM without serum alone was added).
3 hours later, the caspase-3/7 activity was assayed with Apo-One homogenous Caspase-3/7 assay kit (Promega).

SH-SY5Y cells [5] = experiment: Staurosporine-induced cellular death model, dead cells by LDH assay; assay type: cell-based, human; settings: staurosporine + (150 nM), 24 h
Method: as §1, with “plated” for “spread”, “added.) 24 hours later, LDH activity was assayed by measuring the absorbance at 490 nm, using Cytotoxicity detection kit (Roche). […] An apparent correlation is observed with the results of viable cells as determined by the MTT assay in Example 9.” for “added).”

SH-SY5Y cells [6] = experiment: MPP+-induced cellular death model, viable cells by MTT assay; assay type: cell-based, human; settings: for MTT assay A490: MPP+ + (3 mM), 24 h
Method: SH-SY5Y cells were spread on a 96-well plate (70,000 cell/well in 100 μl DMEM low glucose 10% fetal bovine serum) for overnight culturing, from which the culture medium was removed with an aspirator. Then, DMEM without serum was added at 50 μl/well. […] 2 hours later, DMEM without serum containing 18 mM MPP^+ was added at 20 μl/well. (MPP^+ to a final 3 mM concentration) (For a control, DMEM without serum alone was added).
24 hours later, cell growth activity was assayed by measuring the absorbance at 490 nm, using Celltiter 96 aqueous one solution cell proliferation assay kit (Promega).
In the assay system, MPP^+ as an MPTP metabolite was added to a neuroblastoma SH-SY5Y, to inhibit the mitochondrial complex I to cause the generation of active oxygen and the inhibition of ATP synthesis, to induce cellular death. It is said that in the murine MPTP model commonly used as a model of Parkinson's disease, MPTP passing through the blood brain barrier is metabolized into MPP^+, which exerts toxicity specific to murine nigra cell to induce nerve detachment. Therefore, the assay system can be said as an in vitro assay system mimicking the murine MPTP model.

SH-SY5Y cells [7] = experiment: Thapsigargin-induced cellular death model, viable cells by MTT assay; assay type: cell-based, human; settings: for MTT assay A490: thapsigargin + (100 nM), 24 h
Method: as §1, with “plated” for “spread”, “600” for “900”, “thapsigargin” for “staurosporine”, “(Thapsigargin” for “(Staurosporine”, “100” for “150”, “added.) 24 hours later, the viable cell count was calculated from the absorbance at 490 nm, using Celltiter 96 Aqueous one solution cell proliferaion assay kit (Promega).” for “added).”

SH-SY5Y cells [8] = experiment: MPP+-induced cellular death model, dead cells by LDH assay; assay type: cell-based, human; settings: for LDH release A490: MPP+ + (3 mM), 24 h
Method: SH-SY5Y cells were spread on a 96-well plate (70,000 cell/well in 100 μl DMEM low glucose 10% fetal bovine serum) for overnight culturing, from which the culture medium was removed with an aspirator. Then, DMEM without serum was added at 50 μl/well. […] 2 hours later, DMEM without serum containing 18 mM MPP^+ was added at 20 μl/well. (MPP^+ to a final 3 mM concentration) (For a control, DMEM without serum alone was added.)
24 hours later, the dead cell count was calculated on the basis of the LDH activity assayed with a cytotoxicity detection kit (Roche). […] The results reveal that the PPARδ agonists are effective on the suppression of MPP^+-induced cellular death.

Cc1cc(SCc2sc(-c3ccc(C(F)(F)F)cc3)nc2C)ccc1OCC(=O)O [GW501516]
suppression of caspase-3/7 activity (in words) (SH-SY5Y cells [1]; SH-SY5Y, thapsigargin): suppress the activity of caspase-3/7 | Caspase 3/7 activity (SH-SY5Y cells [1]; compound 1 μM): 237165 ± 5248 RFLU | Caspase 3/7 activity (SH-SY5Y cells [1]; compound 10 μM): 125951 ± 6465 RFLU | Caspase 3/7 activity (SH-SY5Y cells [1]; compound 100 μM): 421972 ± 21782 RFLU | Lesions with cerebral infarction (area in % of damaged site in the 6 sections), Cortex ([2]; 24 μg/head/day i.c.v.): 9.39 ± 1.56% | Lesions with cerebral infarction (area in % of damaged site in the 6 sections), Subcortex ([2]; 24 μg/head/day i.c.v.): 9.35 ± 0.65% | Lesions with cerebral infarction (area in % of damaged site in the 6 sections), Total ([2]; 24 μg/head/day i.c.v.): 18.74 ± 2.00% | Lesions with cerebral infarction (area in % of damaged site in the 6 sections), Cortex ([2]; 240 μg/head/day i.c.v.): 7.26 ± 1.67 % | Lesions with cerebral infarction (area in % of damaged site in the 6 sections), Subcortex ([2]; 240 μg/head/day i.c.v.): 7.88 ± 0.79% | Lesions with cerebral infarction (area in % of damaged site in the 6 sections), Total ([2]; 240 μg/head/day i.c.v.): 15.14 ± 2.20 % | action to reduce cerebral infarction (in words) ([2]; rat cerebral infarction model): potent actions to reduce cerebral infarction; also recorded: far greater action of reducing cerebral damages | DA content per wet weight of striate body ([3]; 12 μg/head/day): 7.41 ± 1.27 ng/mg tissue | DOPAC content per wet weight of striate body ([3]; 12 μg/head/day): 0.39 ± 0.06 ng/mg tissues | HVA content per wet weight of striate body ([3]; 12 μg/head/day): 0.82 ± 0.08 ng/mg tissue | DA content per wet weight of striate body ([3]; 120 μg/head/day): 8.98 ± 1.20 ng/mg tissue | DOPAC content per wet weight of striate body ([3]; 120 μg/head/day): 0.44 ± 0.04 ng/mg tissues | HVA content per wet weight of striate body ([3]; 120 μg/head/day): 0.90 ± 0.05 ng/mg tissue | action of suppressing the decrease of the contents of DA, DOPAC and HVA (in words) ([3]; any of the doses (12 or 120 μg/head/day)): greatly observed | suppression of caspase-3/7 activity (in words) (SH-SY5Y cells [4]; SH-SY5Y, staurosporine): suppress the activity of caspase-3/7 | Caspase 3/7 activity (SH-SY5Y cells [4]; compound 0.1 μM): 586295 ± 18787 RFLU | Caspase 3/7 activity (SH-SY5Y cells [4]; compound 1 μM): 463943 ± 12110 RFLU | Caspase 3/7 activity (SH-SY5Y cells [4]; compound 10 μM): 420844 ± 13962 RFLU | LDH release A490 (SH-SY5Y cells [5]; compound 0.1 μM): 0.5430 ± 0.0264 | LDH release A490 (SH-SY5Y cells [5]; compound 1 μM): 0.5201 ± 0.0313 | LDH release A490 (SH-SY5Y cells [5]; compound 10 μM): 0.4025 ± 0.0188 | suppression of MPP+-induced cellular death (in words) (SH-SY5Y cells [6]; SH-SY5Y, MPP+): suppress cellular death induced by MPP^+ in a concentration-dependent manner | MTT assay A490 (SH-SY5Y cells [6]; compound 0.1 μM): 0.3361 ± 0.0073 | MTT assay A490 (SH-SY5Y cells [6]; compound 1 μM): 0.3926 ± 0.0090 | MTT assay A490 (SH-SY5Y cells [6]; compound 10 μM): 0.3814 ± 0.0156 | MTT assay A490 (SH-SY5Y cells [6]; compound 100 μM): 0.2990 ± 0.0144 | suppression of thapsigargin-induced cellular death (in words) (SH-SY5Y cells [7]; SH-SY5Y, thapsigargin): suppressed cellular death induced by thapsigargin (TG) in a concentration-dependent manner | MTT assay A490 (SH-SY5Y cells [7]; compound 0.1 μM): 0.2978 ± 0.0096 | MTT assay A490 (SH-SY5Y cells [7]; compound 1 μM): 0.3150 ± 0.0135 | MTT assay A490 (SH-SY5Y cells [7]; compound 10 μM): 0.3478 ± 0.0110 | MTT assay A490 (SH-SY5Y cells [7]; compound 100 μM): 0.2950 ± 0.0033 | cellular toxicity (in words) (SH-SY5Y cells [7]; concentration of 100 μM, thapsigargin model): cellular toxicity of GW501516 can be observed | LDH release A490 (SH-SY5Y cells [8]; compound 0.1 μM): 0.3633 ± 0.0153 | LDH release A490 (SH-SY5Y cells [8]; compound 1 μM): 0.3222 ± 0.0207 | LDH release A490 (SH-SY5Y cells [8]; compound 10 μM): 0.2981 ± 0.0154 | LDH release A490 (SH-SY5Y cells [8]; compound 100 μM): 0.7969 ± 0.0251 | cytotoxicity (in words) (SH-SY5Y cells [8]; concentration of 100 μM, MPP+ model): exerted cytotoxicity
